Measurements from the supplement of paper PMC10307832.

How the values were obtained:
Test in all cases: relative viability (nuclei count vs DMSO), 5 days (fraction); higher = more cells survive
VE-821 + Decitabine = compound: CS(=O)(=O)c1ccc(-c2cnc(N)c(C(=O)Nc3ccccc3)n2)cc1 [VE-821] + Nc1ncn([C@H]2C[C@H](O)[C@@H](CO)O2)c(=O)n1 [Decitabine] (partner 2 µM)
In short: (§1)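 The day after seeding in 1536-well plates, lung cancer cell lines were treated by pin tool with a single drug, or with a fixed anchor-drug dose together with five library-drug doses (not always all listed) in √10 steps. After 5 days, a combined fix-and-stain solution (final 0.05% Triton X-100, 1% formaldehyde, 1 ug/ml Hoechst) was added. Nuclei counted on 4× images gave relative viability as treated counts over vehicle counts, reported as the median of duplicate plates.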

Vismodegib + Dasatinib = compound: CS(=O)(=O)c1ccc(C(=O)Nc2ccc(Cl)c(-c3ccccn3)c2)c(Cl)c1 [Vismodegib] + Cc1nc(Nc2ncc(C(=O)Nc3c(C)cccc3Cl)s2)cc(N2CCN(CCO)CC2)n1 [Dasatinib] (partner 0.075 µM)
In short: as §1

Ruxolitinib + Trametinib = compound: N#CC[C@H](C1CCCC1)n1cc(-c2ncnc3[nH]ccc23)cn1 [Ruxolitinib] + CC(=O)Nc1cccc(-n2c(=O)n(C3CC3)c(=O)c3c(Nc4ccc(I)cc4F)n(C)c(=O)c(C)c32)c1 [Trametinib] (partner 0.02 µM)
In short: as §1

Ruxolitinib + Bortezomib = compound: N#CC[C@H](C1CCCC1)n1cc(-c2ncnc3[nH]ccc23)cn1 [Ruxolitinib] + CC(C)C[C@H](NC(=O)[C@H](Cc1ccccc1)NC(=O)c1cnccn1)B(O)O [Bortezomib] (partner 0.002 µM)
In short: as §1

Row | Cell Line | relative viability (VE-821 + Decitabine; first compound 0.08 µM) | relative viability (VE-821 + Decitabine; first compound 0.253 µM) | relative viability (VE-821 + Decitabine; first compound 0.8 µM) | relative viability (VE-821 + Decitabine; first compound 2.53 µM) | relative viability (VE-821 + Decitabine; first compound 8 µM) | relative viability (Vismodegib + Dasatinib; first compound 0.08 µM) | relative viability (Vismodegib + Dasatinib; first compound 0.253 µM) | relative viability (Vismodegib + Dasatinib; first compound 0.8 µM) | relative viability (Vismodegib + Dasatinib; first compound 2.53 µM) | relative viability (Vismodegib + Dasatinib; first compound 8 µM) | relative viability (Ruxolitinib + Trametinib; first compound 0.08 µM) | relative viability (Ruxolitinib + Trametinib; first compound 0.253 µM) | relative viability (Ruxolitinib + Trametinib; first compound 0.8 µM) | relative viability (Ruxolitinib + Trametinib; first compound 2.53 µM) | relative viability (Ruxolitinib + Trametinib; first compound 8 µM) | relative viability (Ruxolitinib + Bortezomib; first compound 0.08 µM) | relative viability (Ruxolitinib + Bortezomib; first compound 0.253 µM) | relative viability (Ruxolitinib + Bortezomib; first compound 0.8 µM) | relative viability (Ruxolitinib + Bortezomib; first compound 2.53 µM) | relative viability (Ruxolitinib + Bortezomib; first compound 8 µM)
1 | NCI-H1734 | 0.585 | 0.473 | 0.515 | 0.522 | 0.448 | 0.44 | 0.498 | 0.482 | 0.446 | 0.537 | 0.66 | 0.647 | 0.635 | 0.462 | 0.607 | 0.928 | 0.924 | 0.983 | 0.74 | 0.835
2 | PC-3 [JPC-3] | 0.87 | 0.832 | 0.95 | 0.912 | 0.799 | 0.947 | 0.985 | 1.03 | 0.974 | 0.924 | – | 0.711 | 0.79 | 0.654 | 0.64 | 0.63 | 0.819 | 0.738 | 0.796 | 0.7
3 | HCC-827 | 0.347 | 0.344 | 0.357 | 0.352 | 0.357 | 0.361 | 0.263 | 0.297 | 0.268 | 0.293 | – | 0.545 | 0.563 | 0.469 | 0.784 | 1.05 | 0.993 | 1.01 | 0.881 | 0.798
4 | NCI-H2405 | 0.805 | 0.698 | 0.775 | 0.814 | 0.761 | 0.214 | 0.228 | 0.212 | 0.235 | 0.239 | 0.674 | 0.66 | 0.725 | 0.428 | 0.398 | 1.02 | 0.968 | 0.923 | 0.99 | 0.23
5 | HOP-62 | 0.185 | 0.261 | 0.265 | 0.214 | 0.25 | 0.663 | 0.694 | 0.609 | 0.683 | 0.683 | 0.414 | 0.398 | 0.476 | 0.188 | 0.37 | – | 0.719 | 1.15 | 0.856 | 0.763
6 | LCLC-97TM1 | 0.266 | 0.278 | 0.239 | 0.251 | 0.178 | 0.855 | 0.755 | 0.617 | 0.856 | 0.834 | 0.176 | 0.157 | 0.199 | 0.113 | 0.217 | 0.407 | 0.69 | 0.635 | 0.906 | 0.526
7 | NCI-H3122 | 0.474 | 0.482 | 0.485 | 0.46 | 0.428 | 0.871 | 0.823 | 0.811 | 0.862 | 0.867 | 0.232 | 0.192 | 0.21 | 0.167 | 0.227 | 1.02 | 0.986 | 0.92 | 0.926 | 0.873
8 | PC-14 | 0.221 | 0.241 | 0.222 | 0.213 | 0.126 | 0.25 | 0.235 | 0.27 | 0.225 | 0.244 | – | 0.829 | 1.17 | 0.45 | 0.625 | – | 0.969 | 0.875 | 0.789 | 0.603
9 | NCI-H1650 | 0.448 | 0.369 | 0.322 | 0.437 | 0.389 | 0.276 | 0.347 | 0.339 | 0.258 | 0.291 | 0.331 | 0.597 | 0.628 | 0.27 | 0.541 | – | 0.185 | 0.188 | 0.18 | 0.195
10 | HCC-366 | 0.398 | 0.381 | 0.323 | 0.226 | 0.121 | 0.816 | 0.587 | 0.622 | 0.693 | 0.692 | 0.33 | 0.319 | 0.432 | 0.239 | 0.231 | 1.03 | 0.987 | 1.16 | 1.01 | 0.845
11 | HARA | 0.551 | 0.636 | 0.613 | 0.615 | 0.516 | 0.263 | 0.249 | 0.254 | 0.339 | 0.279 | 0.639 | 0.622 | 1.07 | 0.269 | 0.775 | 1.29 | 1.06 | 1.11 | 0.534 | 1.09
12 | COR-L 105 | 0.666 | 0.579 | 0.58 | 0.613 | 0.518 | 0.288 | 0.303 | 0.422 | 0.339 | 0.357 | – | 0.472 | 0.424 | 0.381 | 0.432 | 0.925 | 0.949 | 0.826 | 0.536 | 0.647
13 | EMC-BAC-2 | 1.07 | 0.961 | 0.996 | 0.969 | 0.826 | 0.334 | 0.365 | 0.285 | 0.353 | 0.317 | 0.886 | 0.806 | 1.08 | 0.768 | 0.948 | 1.12 | 1.06 | 1.15 | 1.06 | 0.811
14 | NCI-H1666 | 0.698 | 0.702 | 0.786 | 0.753 | 0.688 | 0.73 | 0.777 | 0.816 | 0.841 | 0.734 | 0.834 | 0.87 | 0.871 | 0.76 | 0.881 | 0.685 | 0.833 | 0.861 | 0.781 | 0.96
15 | H3255 | 0.655 | 0.551 | 0.614 | 0.752 | 0.596 | 0.303 | 0.329 | 0.38 | 0.37 | 0.309 | – | 0.548 | 0.725 | 0.465 | 0.648 | – | 0.595 | 0.836 | 0.6 | 0.598
16 | NCI-H1755 | 0.734 | 0.754 | 0.866 | 0.867 | 0.831 | 0.423 | 0.392 | 0.412 | 0.448 | 0.441 | 0.803 | 0.777 | 0.796 | 0.549 | 0.694 | 0.984 | 1.04 | 1.03 | 0.853 | 0.658
17 | LOU-NH91 | 0.833 | 0.813 | 0.812 | 0.836 | 0.805 | 0.55 | 0.554 | 0.526 | 0.547 | 0.511 | 0.731 | 0.702 | 0.77 | 0.725 | 0.743 | 0.52 | 0.463 | 0.492 | 0.47 | 0.534
